The values that follow come from patent US20050009837A1, “Modulators of lipid metabolism and methods of use” (City of Hope, priority 2003, published 2005).

In one data set the target is PPARα (Homo sapiens, UniProt Q07869). The experiment in a line: PPARα activity (data not shown). The class given is cell-based.
In data set [1] the target is T1, LXRα-RXR heterodimers / SRC-1 (Homo sapiens, UniProt Q13133).
T1 construct: made in house; host or cells: receptors translated in vitro
Nature of the data set: In vitro coactivator recruitment/displacement assay (gel), LXRα, RXR, GST-SRC-1, 32P-LXRE probe. The class given is biochemical. To be noted: 10 μM. How it is done: This was tested more directly using an in vitro coactivator recruitment/coactivator displacement assay. This assay has the advantage that it is performed with receptors bound to DNA and that it measures a direct interaction between receptor and coactivator with no interference by other proteins that may indirectly stabilize the complex. The assay was performed by mixing in vitro translated LXRα or LXRβ, RXR, 5 μg of purified GST-SRC-1 and a ^32P-labeled LXRE probe with or without 10 μM Clotrimazole according to previously described methods. Wang et al., Mol. Cell 3:543-553, 1999. The complexes then were separated through 5.5% polyacrylamide gels. The probe used represents a DR-4 element derived from the human SREBP-1c promoter (nt 337-361, accession no. AB046200).

Another data set deals with mouse PXR (Mus musculus, UniProt O54915). To be noted: cited from earlier work.
A further data set deals with CV-1 cells. Nature of the data set: Cytotoxicity in transfected CV-1 cells. To be noted: T0901317 100 nM; Clotrimazole, S883417, S100250 10 μM; approximately 40 hours. Here is the method: Synthetic compounds were screened in an effort to find more specific LXR inhibitors. CV-1 cells were maintained and transfected using known methods. Forman et al., Cell 81: 687-693, 1995. CV-1 cells were transiently transfected with Gal-hLXRα, the RXR LBD, the UASGx4 TK Luc reporter and CMX-β-gal as an internal control, either in standard or in lipid-stripped serum. After transfection, cells were treated for approximately 40 hours with phenol red-free DMEM-FBS containing the indicated compounds at the following concentrations: T0901317 (100 nM), Clotrimazole (10 μM), S883417(10 μM) and S100250 (10 μM), unless otherwise specified. After exposure to ligand, the cells were harvested and assayed for luciferase and β-galactosidase activity. The luciferase activity was normalized to the internal β-galactosidase control (reporter activity).

T1 sequence (Q13133 whole entry): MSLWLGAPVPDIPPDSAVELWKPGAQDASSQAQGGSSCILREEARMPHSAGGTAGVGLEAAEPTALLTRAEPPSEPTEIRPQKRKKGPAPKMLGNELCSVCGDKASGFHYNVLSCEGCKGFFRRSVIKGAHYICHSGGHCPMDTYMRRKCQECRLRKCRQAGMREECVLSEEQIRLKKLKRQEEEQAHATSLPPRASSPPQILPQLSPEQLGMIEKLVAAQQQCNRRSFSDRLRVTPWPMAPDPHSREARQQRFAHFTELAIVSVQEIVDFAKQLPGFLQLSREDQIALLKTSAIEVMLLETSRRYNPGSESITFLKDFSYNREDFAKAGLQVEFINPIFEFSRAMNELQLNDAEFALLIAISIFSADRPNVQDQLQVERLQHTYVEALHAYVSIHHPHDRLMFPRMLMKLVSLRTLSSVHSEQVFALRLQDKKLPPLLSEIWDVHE
T1 sequence (P19793 whole entry partner): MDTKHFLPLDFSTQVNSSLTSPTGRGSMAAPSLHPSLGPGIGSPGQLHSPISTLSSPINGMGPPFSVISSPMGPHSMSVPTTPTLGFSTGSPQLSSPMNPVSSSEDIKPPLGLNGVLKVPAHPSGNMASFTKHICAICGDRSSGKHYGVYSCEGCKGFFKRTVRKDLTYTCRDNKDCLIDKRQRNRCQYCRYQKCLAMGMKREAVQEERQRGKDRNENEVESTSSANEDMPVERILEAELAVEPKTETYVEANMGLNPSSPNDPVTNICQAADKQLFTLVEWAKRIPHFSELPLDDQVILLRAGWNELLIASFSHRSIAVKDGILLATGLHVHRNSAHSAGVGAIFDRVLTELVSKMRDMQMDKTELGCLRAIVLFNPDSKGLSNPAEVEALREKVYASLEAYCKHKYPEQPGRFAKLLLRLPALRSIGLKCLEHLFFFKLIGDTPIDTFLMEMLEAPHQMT
PPARα, sequence (Q07869 whole entry, species assumed): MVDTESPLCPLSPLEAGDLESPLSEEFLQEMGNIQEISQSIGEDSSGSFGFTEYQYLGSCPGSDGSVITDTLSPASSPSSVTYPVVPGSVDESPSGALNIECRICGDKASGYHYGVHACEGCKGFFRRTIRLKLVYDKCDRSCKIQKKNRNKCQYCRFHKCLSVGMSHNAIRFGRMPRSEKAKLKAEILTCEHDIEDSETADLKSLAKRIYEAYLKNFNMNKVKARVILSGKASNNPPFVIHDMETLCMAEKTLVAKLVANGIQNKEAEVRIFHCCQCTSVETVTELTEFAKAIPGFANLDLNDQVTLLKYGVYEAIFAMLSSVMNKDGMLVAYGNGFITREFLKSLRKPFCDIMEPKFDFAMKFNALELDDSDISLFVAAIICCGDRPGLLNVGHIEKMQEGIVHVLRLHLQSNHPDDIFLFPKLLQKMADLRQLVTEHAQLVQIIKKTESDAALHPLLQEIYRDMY
mouse PXR, sequence (O54915 whole entry, the tested form may be a part): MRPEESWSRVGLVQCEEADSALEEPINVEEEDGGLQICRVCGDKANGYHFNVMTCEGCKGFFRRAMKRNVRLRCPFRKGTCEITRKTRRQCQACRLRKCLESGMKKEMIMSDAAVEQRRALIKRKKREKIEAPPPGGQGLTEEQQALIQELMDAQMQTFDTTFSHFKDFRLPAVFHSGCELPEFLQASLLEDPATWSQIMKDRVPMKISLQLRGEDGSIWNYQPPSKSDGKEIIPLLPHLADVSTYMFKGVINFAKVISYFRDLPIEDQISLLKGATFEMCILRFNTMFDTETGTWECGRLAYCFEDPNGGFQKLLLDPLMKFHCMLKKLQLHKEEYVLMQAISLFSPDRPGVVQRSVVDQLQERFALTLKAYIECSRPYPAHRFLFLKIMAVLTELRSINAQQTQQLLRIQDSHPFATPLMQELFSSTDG

In the case of `Clc1ccccc1C(c1ccccc1)(c1ccccc1)n1ccnc1` [Clotrimazole], on PPARα, the “effect on PPARα activity” value was “no effect”. The “effect on LXRα-RXR heterodimers (bound to LXRE probe)” value in data set [1] (lane 3) is on record as “no effect”. The “interaction of LXRα-RXR with SRC-1” value in data set [1] (lane 4) was “prevented the interaction with SRC-1”. In addition, the “activity on mouse PXR” value at mouse PXR was “agonist”. Besides, the cytotoxicity result in the data set with CV-1 cells was “No cytotoxicity”.
